Holding throughout (experiment): NCI anticancer screen, dose series, 48 h
The subject of assay [1] is HCT-15 colon.
Assay [2] relates to HS 578T breast.
The subject of assay [3] is IGROV1 ovarian.
Assay [4] deals with M14 melanoma.
Assay [5] relates to MCF7 breast.
The test system of assay [6] is PC-3 prostate.
Assay [7] has as its system RXF 393 renal.
Assay [8] relates to SNB-75 CNS.
Assay [9] deals with SW-620 colon.
Assay [10] deals with T-47D breast.

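Where inhibition never reached the appropriate level, the endpoint shown equals the highest concentration tested. Otherwise, values were interpolated linearly from a five-concentration, 48-hour dose response in 96-well plates. The concentration for 50% growth inhibition is given as GI50. TGI marks complete inhibition of growth.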

In PubChem BioAssay (NCI) one finds GI50 and TGI data, which are given here for eight compounds.

In the case of `N#Cc1c(Oc2ccc(F)c(NC(=O)Cc3cccc(C(F)(F)F)c3)c2)ccc2nc(NC(=O)C3CC3)sc12`, the GI50 is 0.261 µM in assay [1]; 0.534 µM in assay [2]; 0.94 µM in assay [3]; 0.0275 µM in assay [4]; 1.11 µM in [5]; 1.56 µM in assay [6]. In addition, the GI50 in assay [7] was 1.31 µM; in assay [8] it was 1.1 µM; in [9] it was 0.585 µM; in assay [10], 3.22 µM. Moreover, the TGI is above 100 µM in assay [1]; 3.33 µM in assay [2]; above 44.7 µM in assay [3]; 2.95 µM in assay [4]; above 100 µM in assay [5]; above 100 µM in assay [6]. The TGI was 5.39 µM in assay [7], above 100 µM in assay [8], above 100 µM in [9] and above 100 µM in assay [10].

On to `Cc1cc2c(C(C)C)c(O)c(O)c(C=O)c2c(O)c1-c1c(C)cc2c(C(C)C)c(O)c(O)c(C=O)c2c1O` (tested in a mixture with another compound), for which the GI50 in [1] was 0.79 µM; in [2] it was 0.543 µM; in [3], 0.979 µM; in [4], 1.5 µM; in [5], 1.18 µM; in assay [6], 0.455 µM. Further, the GI50 in assay [7] is 1 µM; in assay [8], 1.55 µM; in [9] it was 0.806 µM; in [10], 1.77 µM. Moreover, the TGI is 2.99 µM in assay [1]; 4.33 µM in assay [2]; 12.7 µM in [3]; 3.61 µM in [4]; 6.9 µM in assay [5]; 3.42 µM in [6]. Besides, the TGI was 2.52 µM in assay [7], 5.03 µM in assay [8], 2.33 µM in assay [9] and 7.03 µM in assay [10].

`COc1cnc2c(c1)C(=O)c1c-2n(CCCN2CCN(CCO)CC2)c(=O)c2cc([N+](=O)[O-])ccc12`: the GI50 in assay [1] is 1.18 µM; in [2], 14.7 µM; in assay [4] it was 0.769 µM; in assay [5], 0.142 µM; in [6] it was 16.5 µM; in assay [7], 4.68 µM. Moreover, the GI50 is 1.64 µM in assay [8], 0.326 µM in assay [9] and 12.8 µM in assay [10]. Further, the TGI in assay [1] was 2.67 µM; in assay [2], 42.1 µM; in assay [4] it was 2.49 µM; in [5] it was 1.59 µM; in assay [6], 92.6 µM; in [7], 20.4 µM. Besides, the TGI in assay [8] is 13.1 µM; in assay [9], 2.07 µM; in [10] it was 46.5 µM.

Turning to `O=C1c2cccc3cc([N+](=O)[O-])cc(c23)C(=O)N1O`, the TGI is above 100 µM in [1]; above 100 µM in assay [2]; above 100 µM in assay [3]; above 100 µM in assay [4]; 91.8 µM in assay [5]; above 100 µM in [6]. For the same compound, the TGI in [7], in assay [9] and in assay [10] was above 100 µM in each case.

As for `CCOC(=O)C(Cc1ccc(OC)cc1)C(=O)OCC`, the GI50 in assay [1] is 3.77 µM; in assay [3], 3.46 µM; in assay [4] it was 8.17 µM; in assay [5], 3.03 µM; in assay [6], 5.08 µM; in assay [7], 2.61 µM. The results for the GI50 in [8] and in assay [10] were 2.72 µM and 2.8 µM, respectively. The TGI in assay [1] stood at 19.4 µM; in assay [3] it was 14.3 µM; in [4] it was 20.7 µM; in assay [5] it was 13.8 µM; in assay [6] it was 32.4 µM; in assay [7] it was 7.02 µM. Further, the TGI in [8] was found to be 9.35 µM; in assay [10] it was 12.4 µM.

In the case of `Cc1sc(/N=C2/NC(=O)CS2)nc1-c1nc(/N=C2/NC(=O)CS2)sc1C`, the GI50 in [1] is above 50 µM; in assay [2], 2.17 µM; in assay [3] it was above 50 µM; in assay [5], 19.7 µM; in assay [6], 16.8 µM; in assay [7] it was above 50 µM. Moreover, the GI50 in assay [8] and in assay [9] was above 50 µM throughout. In addition, the TGI is above 50 µM in assay [1]; 36.3 µM in [2]; above 50 µM in assay [3]; above 50 µM in assay [5]; above 50 µM in assay [6]; above 50 µM in assay [7]. In addition, the TGI in assay [8] and in assay [9] was above 50 µM throughout.

Regarding `Oc1[nH]c2ccc(Cl)cc2c1/C=c1/ccc2c(c1)N=C(c1cc(F)cc(F)c1)N=2`, the GI50 is 3.96 µM in assay [1]; 2.9 µM in assay [2]; 6.21 µM in assay [3]; 2.18 µM in assay [4]; 3.44 µM in [6]; 3.37 µM in assay [7]. Besides, the GI50 in assay [8] was 2.06 µM; in assay [10], 4.47 µM. For the same compound, the TGI in [1] is above 100 µM; in assay [2] it was above 100 µM; in [3], above 100 µM; in assay [4], 5.66 µM; in [6], above 100 µM; in assay [7], 9.88 µM. In addition, the TGI in assay [8] is 7.13 µM; in assay [10], above 100 µM.

`CON`: the GI50 in assay [1], in [2], in [3], in [4], in assay [5] and in assay [7] was above 100 µM in each case. Moreover, the GI50 in assay [8], in assay [9] and in [10] was above 100 µM each time. Also, the TGI in [1], in assay [2], in [3], in [4], in assay [5] and in [7] was above 100 µM in each case. Further, the TGI in assay [8], in [9] and in assay [10] was above 100 µM each time.
